Measurements: patent US20230285512A1, “COMPOSITIONS AND METHODS FOR TREATING MYOCARDIAL INFARCTION AND ISCHEMIA” (priority 2022, published 2023)
Entries after “also recorded” stand apart in the source; their conditions may differ.

Test system: HL-1 cardiomyocytes
Experiment: In vitro hypoxia assay of HL-1 cardiomyocytes, live/dead
Assay type: cell-based
Method: To examine potential functional roles of these candidates, particularly on cellular apoptosis, the study next used an in vitro hypoxia assay of HL-1 CMs, in which cells were exposed to low oxygen (1%02) for 6 hours prior to treatment with recombinant forms of these proteins.
HL-1 cardiomyocytes (Sigma, cat. SCC065) were maintained in growth media consisting of 10% FBS in Claycomb Media (Sigma, cat. 51800C) supplemented with 10 mM norepinephrine (Sigma, cat. A0937) and […] L-glutamine (Gibco, cat. 25030081). Primary cardiac fibroblasts were isolated from Col1a1GFP/+ mice 2 months of age. Mice were injected with heparin prior to sacrifice and the heart collected. The tissue was then cut into 1-2 mm pieces and digested with Liberase Blendzyme TH and TM (Roche, cat. LIBTM-RO) in Hank's Balanced Salt Solution (HBSS) (Gibco, cat. 1417507) supplemented with DNAse I and polaxamer (10 mg/ml, Sigma, cat. 16758) in 37° C. for 1 h. […]
Fluorescent images were acquired with Leica fluorescence inverted microscope DMI6000B equipped with an EL6000 light source. […] Image quantification was performed using Imager s “threshold” and “analyze particles” functions. Assessment of live/dead was determined as the number of DAPI+ cells/HPF. EdU and pHH3 quantification were recorded as the number of EdU+ or pHH3+ nuclei over the total number of DAPI.

thymosin β4: Thymosin family protein Tmsb4x, recombinant form; human reference NP_066932 in Table 1
number of DAPI+ (dead) cells per field (1% O2 for 6 hours prior to treatment with recombinant protein): reduced; also recorded: protective role
cellular viability / toxicity (high doses (500 nM)): cellular toxicity
